From patent US7888527B2 (University of Virginia Patent Foundation, priority 2004, dated 2011)
Entries after “also recorded” stand apart in the source; their conditions may differ.

Key:
[1] = target: T1, human S1P1 receptor (Homo sapiens, UniProt P21453); test: Cell migration assay, T24 cells transfected stably with human S1P1 receptor; assay type: cell-based; design: expressed in transfected cells
Method: […] monolayers are co-transfected with the human S1P1, S1P2, S1P3 receptor encoding DNAs and the pIRESpuro2 plasmid DNA (Clontech, San Jose, Calif.,) using either Lipofectamine 2000 (Invitrogen, Carlsbad, Calif.) or FuGENE 6 (Roche Applied Science, Indianapolis, Ind.). Clonal populations expressing the puromycin acetyltransferase gene are selected by addition of puromycin (Sigma-Aldrich, St. Louis, Mo.) to the culture media. T24 cells are grown in monolayers at 37° C. in a 5% CO2/95% air atmosphere in growth media consisting of: 95% DMEM/F-12 medium and 10% charcoal/dextran stripped FBS.
Cell migration assays are performed using modified Boyden chambers (tissue culture-treated, 24-mm diameter, 10-μm thickness, 8-μm pores, Transwell®; Costar Corp., Cambridge, Mass.) containing polycarbonate membranes that are coated on the underside with 0.1% gelatin. The underside of the polycarbonate membranes is rinsed once with migration media (DMEM/F12 without Phenol Red and 0.1% fatty acid free BSA) and then immersed in the lower chamber containing two milliliters of migration media. T24 cells transfected stably with human S1P1 receptor DNA were grown in DMEM/F12 media containing charcoal/dextran stripped FBS and 10 μg/ml puromycin to 100% confluence in 150×2.5 mm tissue culture plates and serum starved at least 12 hours. Serum-starved cells were removed from culture dishes with 10× Trypsin-EDTA (Hanks' balanced salt solution containing 5 mM EDTA and 25 mM HEPES, pH 7.2, and 0.1% trypsin; Invitrogen, San Diego, Calif.), suspended in migration buffer and collected by centrifugation at 130×g for 5 minutes. The supernatant fluid was removed by aspiration and cell pellet resuspended in migration media (10^6 cells/ml). […] The non-migrating cells in the upper chamber were removed by aspiration and the migratory cells attached to the bottom surface of the membrane were isolated by incubation in 10× Trypsin-EDTA for 1 min at room temperature and gently tapping the plate to dislodge cells from the membrane. The mass of migratory cells per membrane was evaluated by combining 100 μl of cell suspension with an equal volume of CyQuant dye solution (3.0 ml of 2× lysis buffer and 15 μl CyQuant dye), and the resulting fluorescence quantified using the FlexStation™ fluorimeter (Molecular Devices, Menlo Park, Calif.). Each determination represents the average of two individual migration chambers. […] The monolayer was washed three times with phosphate buffered saline and processed immediately for the cell migration assay, as described above.

[2] = target: T1, human S1P1 receptor; test: [γ-35S]GTP binding assay, HEK293T membranes (agonism and Schild antagonism); assay type: biochemical; design: expressed in transfected cells; host or cells: HEK293T, transient transfection; membranes
Text: The appropriate receptor plasmid DNA (encoding human S1P1, human S1P2, human S1P3, human S1P4, human S1P5, human LPA1, human LPA2 or human LPA3 receptors) is mixed with equal amounts of expression plasmids encoding human Gi2α (for S1P3, a mutated (C352F) rat Gi2α is used), cow β1, and cow γ2 proteins, and these DNAs are used to transfect monolayers of HEK293T cells (where ‘T’ indicates expression of the SV-40 virus large T antigen) using the calcium phosphate precipitate method (7). After about 60 hours, cells are harvested, membranes prepared, aliquoted, and stored at −70° C. until use (8).
The [γ-^35S]GTP binding assay is performed as described previously (8). Membranes containing 1-5 μg of protein are incubated in 0.1 ml of binding buffer (in mM: HEPES/50, NaCl/100, MgCl2/10, pH 7.5) containing 5 μg of saponin, 10 μM GDP, 0.1 nM [γ-^35S]GTP (1200 Ci/mmol), and indicated lipid(s) for 30 min at 30° C. and collected using a Brandel Cell Harvester (Gaithersburg, Md.). Samples are then analyzed for bound radionuclide.
Briefly, nonlinear analysis of the best-fit line generated by plotting the negative log of the EC50 values obtained from agonist dose-response curves, in the absence and presence of varying concentrations of antagonist, was plotted against the concentration of antagonist to give the Kb value.
Statistical Analysis. The EC50 and IC50 values for all dose response curves were determined by nonlinear regression analysis of all data using the Graphpad Prism© program. The error associated with the data collected is reported as the standard error of the mean (S.E.M).

T1 sequence (P21453 whole entry): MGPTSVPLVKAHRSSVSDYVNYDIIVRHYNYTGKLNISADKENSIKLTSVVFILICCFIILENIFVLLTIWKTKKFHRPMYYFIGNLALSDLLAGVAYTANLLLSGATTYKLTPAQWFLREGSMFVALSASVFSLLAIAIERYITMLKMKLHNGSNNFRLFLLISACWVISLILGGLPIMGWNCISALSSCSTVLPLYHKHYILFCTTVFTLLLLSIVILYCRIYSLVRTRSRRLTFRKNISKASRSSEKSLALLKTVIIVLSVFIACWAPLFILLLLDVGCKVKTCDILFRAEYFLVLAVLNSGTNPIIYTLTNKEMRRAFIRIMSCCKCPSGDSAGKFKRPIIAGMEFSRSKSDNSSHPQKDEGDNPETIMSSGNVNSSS

Blockade of VPC22277 (10 nM)-induced migration ([1]; 50 nM antagonist): Blockade | Reversibility of antagonism after washout, cell migration ([1]; 10 μM VPC23019 pre-incubation 30 min, washed): recovered fully | Blockade of VPC22277 (10 nM)-induced migration ([1]; 10, 100 and 1000 nM antagonist): blockade | Migration of T24-S1P1 cells evoked by compound alone ([1]; VPC22277 10 nM, VPC23019 1 nM-1000 nM): no migration was evoked and not | Agonist activity at the S1P1 receptor [2]: lacked agonist activity | pKb S1P1 ([2]; Schild analysis (Lew and Angus) of S1P curves in [γ-35S]GTP binding, ± S.E.M.): 7.49±0.16 | Inverse agonism profile at S1P1 ([2]; VPC23019 concentrations greater than 100 nM): a profile suggesting inverse agonism | Kb ([2]; read-out: pKb S1P1 (converted)): 32.4 nM
SMILES: CCCCCCCCc1cccc(NC(=O)[C@H](N)COP(=O)(O)O)c1 [VPC23019]
Antagonism of S1P at the S1P1 receptor ([2]; [γ-35S]GTP binding, S1P with increasing VPC23019, Lew and Angus regression): dose-dependent, parallel rightward shift; also recorded: competitive antagonist | Agonist efficacy class S1P1 ([2]; relative to S1P Emax): na (no agonist activity (<10% of S1P Emax))
